# US7671242B2 (priority 2005, dated 2010)
# Where two headings read alike, the source gives them in different places.
# Key:
# [1] = cited from earlier work
# [2] = cited from earlier work; remark: listed apart in the source
# [3] = assay type: physicochemical; conditions: lipoxidase treatment at 37° C., hexane:ethyl ether extraction, HPLC
# [4] = cited from earlier work; remark: listed apart in the source
Compound,Stability ([1]; light and oxygen),Stability ([1]; stored at −20° C. under a nitrogen atmosphere),Solubility ([2]; Ethyl acetate),Solubility ([2]; Methyl tert butyl ether),Solubility in nonpolar and polar solvents ([2]; nonpolar and polar solvents),Solubility in water ([2]; water),initial lutein recovered after enzyme treatment [3],Lipid and water solubility [4]
"CC1=C[C@H](O)CC(C)(C)[C@H]1/C=C/C(C)=C/C=C/C(C)=C/C=C/C=C(C)/C=C/C=C(C)/C=C/C1=C(C)C[C@@H](O)CC1(C)C [Lutein, 3,3′-dihydroxy-alpha-carotene]",Unstable to light and oxygen;,Stable if stored at −20 °C under a nitrogen,800 µg/mL,2000 µg/mL,soluble in both nonpolar and polar solvents,Insoluble,Approximately 88%,–
aflatoxin B1 [AFB1],–,–,–,–,–,–,–,both lipid and water soluble
